# Results reported in patent publication US11459570B2, “Transgenic mouse expressing amyloid precursor protein that has olfactory neuron degeneration” (The General Hospital Corporation, priority 2014, dated 2022).
# Tests used:
# [1] = test system: cortical neurons; conditions: rats; cited from earlier work
# [2] = test system: neuronal differentiated ReNcell VM cells; assay: Viability of differentiated ReNcell VM neurons transfected with poly IC (Celltiter-Glo); assay type: cell-based, human; conditions: escalating doses of poly IC, after 2 days (48 hours) in culture
# Description: (§1) FIGS. 12A-G. dsRNA induces a Type I interferon response and is sufficient to induced neurodegeneration in human neurons. A-E) Representative transmitted light images of differentiated ReNVM neurons transfected with increasing doses of PolyIC, a dsRNA mimetic, showing a dose-dependent loss of neurons after 48 hours.
# (§2) Cytoplasmic dsRNA is sensed by three different proteins, PKR, MDA5, and RIG-I, that are components of the innate immune system. Engagement of each protein by dsRNA induces interferon signaling and neurodegeneration. […] To determine if cytoplasmic dsRNA was sufficient to mediate neurodegeneration in a human neurons, we transfected neuronal differentiated ReNcell VM cells, a human neural cell line derived from ventral mesencephalon, with escalating doses of poly IC (which mimics a GC dinucleotide repeat).
# [3] = test system: MDA5 and PKR; assay: Western blots of type I interferon-stimulated genes in differentiated ReNVM cells after PolyIC transfection; assay type: cell-based, human; conditions: western blot, 24 hour post transfection with PolyIC
# Description: as §1, §2
# [4] = test system: OSNs; conditions: mice, intranasal instillation; cited from earlier work
substance,measurement,setting,value
polyinosinic-polycytidylic acid [poly IC],degeneration of cortical neurons,[1],causes degeneration
same,viability of ReNVM neurons relative to mock-transfected neurons,[2],dose-dependent reduction in their viability
same,viability of ReNVM neurons relative to mock-transfected neurons,[2]; listed as PolyIC,dose-dependent loss in cell viability
same,"protein expression of type I interferon-stimulated genes (MDA5, PKR)",[3],massive induction of MDA5 and PKR
same,"protein expression of type I interferon-stimulated genes (MDA5, PKR)",[3]; listed as PolyIC,elevated protein expression of type I interferon-stimulated genes
same,degeneration of OSNs,[4],causes degeneration
